Experimental findings from patent US20100197591A1, “4-AMINO-7,8-DIHYDROPYRIDO[4,3-d]PYRIMIDIN-5(6H)-ONE DERIVATIVES” (pfizer Inc, priority 2009, published 2010) are described below.

For one experiment, the target named is T1, Human full-length diacylglycerol:acylCoA acyltransferase 1 (DGAT-1) (Homo sapiens, UniProt O75907).
T1 construct: Human full-length diacylglycerol:acylCoA acyltransferase 1 (DGAT-1) was expressed in Sf9 insect cells; made in house; host or cells: Sf9 insect cells (baculovirus); crude membrane/microsome fraction
T1 sequence (O75907 1-488): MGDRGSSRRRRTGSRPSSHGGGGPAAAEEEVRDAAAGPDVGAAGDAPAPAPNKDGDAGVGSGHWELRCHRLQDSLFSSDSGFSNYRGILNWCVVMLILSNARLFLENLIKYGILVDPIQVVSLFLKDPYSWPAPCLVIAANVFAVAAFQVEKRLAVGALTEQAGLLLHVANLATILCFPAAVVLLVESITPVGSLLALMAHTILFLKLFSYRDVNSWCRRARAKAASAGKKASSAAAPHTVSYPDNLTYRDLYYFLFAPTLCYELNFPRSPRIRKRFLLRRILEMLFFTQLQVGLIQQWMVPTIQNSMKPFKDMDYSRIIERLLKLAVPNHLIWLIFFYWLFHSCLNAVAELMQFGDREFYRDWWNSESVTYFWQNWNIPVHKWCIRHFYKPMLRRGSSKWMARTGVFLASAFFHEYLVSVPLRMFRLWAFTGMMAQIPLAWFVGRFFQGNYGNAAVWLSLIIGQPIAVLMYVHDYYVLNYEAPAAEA
Briefly: DGAT-1 Reduced Microsome Multidose Assay, G7329F Human IC50. It counts as biochemical. The conditions noted are these: crude membrane fraction of Sf9 cells expressing human DGAT-1; [14C]decanoylCoA; apparent IC50, average where tested more than once. The protocol: (§1) Human full-length diacylglycerol:acylCoA acyltransferase 1 (DGAT-1) was expressed in Sf9 insect cells which are then lysed and a crude membrane fraction (105,000×g pellet) was prepared. The DGAT-1 gene is a human DGAT-1 gene described in J Biol Chem 273:26765 (1998) and U.S. Pat. No. 6,100,077.
(§2) In vitro inhibition of DGAT-1 was measured using a modification, further described below, of the assay methodology described in U.S. Pat. No. 6,994,956 B2.
(§3) The cells were cultured as follows. Sf9 cells (20 L) were infected with 4 mL of DGAT-1 Baculovirus Infected Insect Cells (BIIC) for 72 hours in a Wave Bioreactor System 20/50P (Wave Biotec/GE Healthcare).
(§4) Crude DGAT-1 microsomes were prepared as follows. Cell pellets were washed once with ice-cold Dulbecco's phosphate-buffered saline. Cells were collected in tabletop centrifuge (Beckman GS-6KR), 15 minutes, 2000×g, 4° C. Twenty (20) mL of ice-cold Microsome Buffer (MB) was added per 5 g of cell pellet. The suspension was passed through a microfluidizer 3 times (18K psi). The lysate was transferred to centrifuge tubes and centrifuged for 20 minutes at 5000×g (Beckman-Coulter, Inc. Allegra® 64R High-Speed Refrigerated Benchtop Centrifuge, F0650 rotor) at 4° C. The supernatant was transferred to ultracentrifuge tubes and centrifuged at 125,000×g for 1 hour in a Beckman Ti-45 rotor, 4° C. The supernatant fluid was discarded. The pellet was resuspended in 70 mL of MB by sonication. The microsome concentration was determined using Bio-Rad Protein DC Protein Assay. The microsomes were filter sterilized with a 0.22 μm filter. The samples were portioned, flash frozen and stored at −80° C.
(§5) The Microsome Buffer, used for microsome preparation, was prepared by conventional means and contained 125 mM sucrose, 3 mM imidazole, 0.2 μg/mL aprotinin, 0.2 μg/mL leupeptin and 5 mM dithiothreitol (Cleland's reagent), DGAT-1 activity was measured in 384-well format in a total assay volume of 25 μl that contained, Hepes buffer (50 mM, pH 7.5), MgCl2 (10 mM), bovine serum albumin (0.6 mg/ml), [^14C]decanoylCoA (20 μM, 58 Ci/mol) and membranes (25 μg/ml) into which 1,2 dioleoyl-sn-glycerol (75 μM) in acetone has already been incorporated. Inhibitors in DMSO were pre-incubated with membranes before initiating the DGAT-1 reaction by the addition of decanoylCoA. […] The DMSO concentration was 2.5%. The inhibitors were present at a range of eight concentrations to generate an apparent IC50 for each compound. The eight inhibitor concentration employed ranged from 10 μM to 3 nM (from high to low concentration). Specifically, the eight concentrations used were 10 μM, 3 μM, 1 μM, 300 nM, 100 nM, 30 nM, 10 nM and 3 nM.
(§6) Reaction mixtures were neutralized by the addition of 15 μl of tris(hydroxy-methyl)aminomethane (1M, pH 8.0) and then mixed by trituration with 37.5 μl of Microscint™-E (Perkin Elmer). Plates contents were allowed to partition for 15 to 30 min before ^14C was measured in a scintillation spectrometer (Wallac Microbeta Trilux 1450-030 liquid scintillation counter 12 detector in the top-count DPM mode). Percent inhibition of test compounds was computed as […].
(§7) Four separate assays were performed using 4 different methods of analysis. The method of analysis of Assay 1 was the same as Assay 4 (described above) except microsomes were utilized at 25 μg/mL instead of 5 μg/mL. The method of analysis of Assay 2 was the same as Assay 4 (described above) except eleven (11) concentrations of inhibitor were employed instead of eight (8). The method of analysis of Assay 3 was the same as Assay 2 except the compounds were serially diluted in a different laboratory.
(§8) Where this DGAT-1 inhibition assay was performed on a compound more than once, an average is provided for that compound.
The term IC50 denotes the concentration that inhibits the measured activity by half. In the case of `COc1nc(N)c2c(n1)CCN(c1ccc(C(C)(C)C(=O)N(C)C)cc1)C2=O` [Example 3H, 2-[4-(4-amino-2-methoxy-5-oxo-7,8-dihydropyrido[4,3-d]pyrimidin-6(5H)-yl)phenyl]-N,N,2-trimethylpropanamide], the half-inhibitory concentration (IC50) worked out at 260 nM.

`COc1nc(N)c2c(n1)CCN(c1ccc(C3(C(=O)O)CCC3)cc1)C2=O` [Example 1P, 1-[4-(4-amino-2-methoxy-5-oxo-7,8-dihydropyrido[4,3-d]pyrimidin-6(5H)-yl)phenyl]cyclobutanecarboxylic acid]: the IC50 stood at 67.1 nM.

With `COc1nc(N)c2c(n1)CCN(c1ccc(C(O)C(C)(C)C)cc1)C2=O` (stereo not shown) [Example 10A, 4-amino-6-[4-(1-hydroxy-2,2-dimethylpropyl)phenyl]-2-methoxy-7,8-dihydropyrido[4,3-d]pyrimidin-5(6H)-one], the IC50 is 58.8 nM.

Regarding `COc1nc(N)c2c(n1)CCN(c1ccc(C(C)(C)c3ncn[nH]3)cc1)C2=O` [Example 3N], the IC50 stood at 78.5 nM.

Regarding `COC(=O)c1ccc(N2CCc3nc(OC)nc(N)c3C2=O)cc1` [Example 2A, Methyl 4-(4-amino-2-methoxy-5-oxo-7,8-dihydropyrido[4,3-d]pyrimidin-6(5H)-yl)benzoate], the IC50 turned out to be 50.3 nM.

In the case of `COc1nc(N)c2c(n1)CCN(c1ccc(C(C)(C)c3nnn[nH]3)cc1)C2=O` [Example 3P, 4-amino-2-methoxy-6-{4-[1-methyl-1-(1H-tetrazol-5-yl)ethyl]phenyl}-7,8-dihydropyrido[4,3-d]pyrimidin-5(6H)-one], the concentration for half-maximal inhibition (IC50) turned out to be 20.9 nM.

For the molecule `COC(=O)C(C)(C)c1ccc(N2CCc3nc(OC)nc(N)c3C2=O)cc1` [Example 3A, methyl 2-[4-(4-amino-2-methoxy-5-oxo-7,8-dihydropyrido[4,3-d]pyrimidin-6(5H)-yl)phenyl]-2-methylpropanoate], the IC50 turned out to be 13.7 nM.

On to `COc1nc(N)c2c(n1)CCN(c1ccc(C(=O)N(C)C)cc1)C2=O` [Example 2H, 4-(4-amino-2-methoxy-5-oxo-7,8-dihydropyrido[4,3-d]pyrimidin-6(5H)-yl)-N,N-dimethylbenzamide], for which the half-maximal inhibitory concentration (IC50) came out at 1370 nM.

Consider `COc1nc(N)c2c(n1)CCN(c1ccc3c(c1)N(C)C(=O)C3(C)C)C2=O` [Example 6J, 4-amino-2-methoxy-6-(1,3,3-trimethyl-2-oxo-2,3-dihydro-1H-indol-6-yl)-7,8-dihydropyrido[4,3-d]pyrimidin-5(6H)-one], for which the 50% inhibitory concentration (IC50) worked out at 256 nM.

In the case of `COc1nc(N)c2c(n1)CCN(c1ccc(Cl)cc1)C2=O` [Example 9F, 4-amino-6-(4-chlorophenyl)-2-methoxy-7,8-dihydropyrido[4,3-d]pyrimidin-5(6H)-one], the IC50 turned out to be 747 nM.

With `CNC(=O)C(C)(C)c1ccc(N2CCc3nc(OC)nc(N)c3C2=O)cc1` [Example 3G, 2-[4-(4-amino-2-methoxy-5-oxo-7,8-dihydropyrido[4,3-d]pyrimidin-6(5H)-yl)phenyl]-N,2-dimethylpropanamide], the half-maximal inhibitory concentration (IC50) came out at 126 nM.

For the molecule `COc1nc(N)c2c(n1)CCN(c1ccc(C(C)(C)C(N)=O)cc1)C2=O` [Example 3I, 2-[4-(4-amino-2-methoxy-5-oxo-7,8-dihydropyrido[4,3-d]pyrimidin-6(5H)-yl)phenyl]-2-methylpropanamide], the IC50 worked out at 52.8 nM.

With `COc1nc(N)c2c(n1)CCN(c1ccc(C3(CO)CCC3)cc1)C2=O` [Example 1O, 4-amino-6-{4-[1-(hydroxymethyl)cyclobutyl]phenyl}-2-methoxy-7,8-dihydropyrido[4,3-d]pyrimidin-5(6H)-one], the half-maximal inhibitory concentration (IC50) amounted to 35.9 nM.

On to `COc1nc(N)c2c(n1)CCN(c1ccc(CC(C)C)cc1)C2=O` [Example 1Z, 4-amino-6-(4-isobutylphenyl)-2-methoxy-7,8-dihydropyrido[4,3-d]pyrimidin-5(6H)-one], for which the IC50 came out at 4.92 nM.

The target in the next experiment is T1, Human full-length diacylglycerol:acylCoA acyltransferase 1 (DGAT-1). Briefly: DGAT-1 Reduced Microsome Multidose Assay, G7829E Human IC50. In kind it is biochemical. The conditions noted are these: crude membrane fraction of Sf9 cells expressing human DGAT-1; [14C]decanoylCoA; terminated with 5 μl of 1.4% phosphoric acid instead of HCl; average where tested more than once. The protocol: as §1, §2, §3, §4, §5, §6, §7, §8
`COc1nc(N)c2c(n1)CCN(c1ccc(C(C)(C)c3ccno3)cc1)C2=O` [Example 3C, 4-amino-6-[4-(1-isoxazol-5-yl-1-methylethyl)phenyl]-2-methoxy-7,8-dihydropyrido[4,3-d]pyrimidin-5(6H)-one] yielded an IC50 of 4.5 nM.

Molecule `COc1nc(N)c2c(n1)CCN(c1ccc(C(C)(C)c3ccon3)cc1)C2=O` [Example 3B, 4-amino-6-[4-(1-isoxazol-3-yl-1-methylethyl)phenyl]-2-methoxy-7,8-dihydropyrido[4,3-d]pyrimidin-5(6H)-one] showed an IC50 of 55 nM.

Molecule `COc1nc(N)c2c(n1)CCN(c1ccc(C3(C(N)=O)CCCC3)cc1)C2=O` [Example 5C, 1-[4-(4-amino-2-methoxy-5-oxo-7,8-dihydropyrido[4,3-d]pyrimidin-6(5H)-yl)phenyl]cyclopentanecarboxamide] returned an IC50 of 217 nM.

Molecule `COc1nc(N)c2c(n1)CCN(c1ccc(C(C)(C)CNC(=O)OC(C)(C)C)cc1)C2=O` [Example 3T, tert-butyl {2-[4-(4-amino-2-methoxy-5-oxo-7,8-dihydropyrido[4,3-d]pyrimidin-6(5H)-yl)phenyl]-2-methylpropyl}carbamate] came in with an IC50 of 19.6 nM.

Molecule `COc1nc(N)c2c(n1)CCN(c1cccc(C(C)(C)CO)c1)C2=O` [Example 1K, 4-amino-6-[3-(2-hydroxy-1,1-dimethylethyl)phenyl]-2-methoxy-7,8-dihydropyrido[4,3-d]pyrimidin-5(6H)-one] displayed an IC50 of 831 nM.

The molecule `COc1nc(N)c2c(n1)CCN(c1ccc(C(=O)C(C)(C)C)cc1)C2=O` [Example 1F, 4-amino-6-[4-(2,2-dimethylpropanoyl)phenyl]-2-methoxy-7,8-dihydropyrido[4,3-d]pyrimidin-5(6H)-one] had an IC50 of 192 nM.

`COc1nc(N)c2c(n1)CCN(c1ccc(C3(C(N)=O)CCCCC3)cc1)C2=O` [Example 5B, 1-[4-(4-amino-2-methoxy-5-oxo-7,8-dihydropyrido[4,3-d]pyrimidin-6(5H)-yl)phenyl]cyclohexanecarboxamide]: the IC50 is 184 nM.

The molecule `COc1nc(N)c2c(n1)CCN(c1ccc3c(c1)COC3(C)C)C2=O` [Example 1U, 4-amino-6-(1,1-dimethyl-1,3-dihydro-2-benzofuran-5-yl)-2-methoxy-7,8-dihydropyrido[4,3-d]pyrimidin-5(6H)-one] registered an IC50 of 229 nM.
